Experimental data: US20030054535A1, “Endoglucanase mutants and mutant hydrolytic depolymerizing enzymes and uses thereof” (priority 1999, published 2003)
Several values for one entry are separate records, joined by “and”; a condition that tells them apart may be missing. Equal values may be shown once.

Columns and labels:
Type in all cases: biochemical
[1] = target: T1, Acidothermus cellulolyticus EI endoglucanase (Cel5A) catalytic domain variant Y245G, SEQ ID NO:3 (Acidothermus cellulolyticus, UniProt P54583, Y286G); test: Inhibition by cellobiose of hydrolysis of 4-methylumbelliferyl-β-D-cellobioside (MUC), Y245G mutant
T1 construct: the mutant and wild type Cel5A catalytic domains were purified using the purification methods described above; made in house; host or cells: E. coli XL1-blue
T1 sequence (P54583 42-399 Y286G): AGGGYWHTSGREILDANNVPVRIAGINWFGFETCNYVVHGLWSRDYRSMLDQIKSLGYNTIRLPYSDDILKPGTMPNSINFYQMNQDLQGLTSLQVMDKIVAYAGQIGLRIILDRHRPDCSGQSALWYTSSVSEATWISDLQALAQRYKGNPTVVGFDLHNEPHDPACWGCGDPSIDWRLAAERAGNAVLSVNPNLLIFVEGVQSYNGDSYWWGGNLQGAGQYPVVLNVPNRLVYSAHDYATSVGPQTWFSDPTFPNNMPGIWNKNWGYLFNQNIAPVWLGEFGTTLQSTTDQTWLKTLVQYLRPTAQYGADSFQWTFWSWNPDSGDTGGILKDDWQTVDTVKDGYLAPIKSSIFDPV
Method: (§1) The enzymes (0.682 ng) were incubated for 30 min with the substrate at each of two concentrations (4 and 20 μM), in the presence of D-cellobiose (Sigma, St. Louis) )at concentrations ranging from 0 to 5 mM for the wild type catalytic domain, and from 0 to 50 mM for the Y245G mutant. At the end of the incubation period, the reaction in each 1-mL assay mixture was terminated by addition of 2 mL of 0.5 M sodium carbonate, pH 10.0. The extent of hydrolysis was then determined from the fluorescence of the ionized product, 4-methylumbelliferone, as measured in a SPEX FLUOROLOG spectrofluorometer with excitation wavelength at 380 nm and emission wavelength at 455 nm. These studies established that under these conditions, […]. Inhibition constants were then determined by means of Dixon plots of reciprocal velocity versus inhibitor concentration (Segel, 1975).
(§2) The mutant Cel5A enzyme, Y245G, was generated by PCR mutagenesis, and the mutant and wild type Cel5A catalytic domains were purified using the purification methods described above. […] For this reason, the molar extinction coefficients of the recombinant enzymes were calculated by considering the specific change in amino acid composition.

[2] = target: T2, Acidothermus cellulolyticus EI endoglucanase (Cel5A) catalytic domain, wild type (native), SEQ ID NO:3 of U.S. Pat. No. 5,536,655 (Acidothermus cellulolyticus, UniProt P54583); test: Inhibition by cellobiose of hydrolysis of 4-methylumbelliferyl-β-D-cellobioside (MUC), wild type; details: Ki for inhibition by cellobiose, substrate MUC 4 and 20 μM, 30 min, cellobiose 0 to 5 mM, Dixon plots
T2 construct: the mutant and wild type Cel5A catalytic domains were purified using the purification methods described above; made in house; host or cells: E. coli XL1-blue
T2 sequence (P54583 42-400): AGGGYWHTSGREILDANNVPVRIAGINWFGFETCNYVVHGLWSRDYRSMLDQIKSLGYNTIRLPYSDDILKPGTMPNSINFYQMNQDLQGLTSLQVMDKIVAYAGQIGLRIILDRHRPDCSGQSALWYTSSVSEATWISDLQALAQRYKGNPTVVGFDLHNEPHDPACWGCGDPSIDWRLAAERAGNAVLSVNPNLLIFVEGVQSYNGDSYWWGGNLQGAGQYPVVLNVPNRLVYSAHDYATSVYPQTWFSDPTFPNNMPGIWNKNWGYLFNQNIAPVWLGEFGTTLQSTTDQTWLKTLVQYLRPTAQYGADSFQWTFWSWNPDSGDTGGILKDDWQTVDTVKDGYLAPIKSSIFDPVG
Method: as §1, §2

[3] = target: T3, Acidothermus cellulolyticus EI endoglucanase (Cel5A) catalytic domain variant W42R, SEQ ID NO:1 (Acidothermus cellulolyticus, UniProt P54583, W83R); test: Michaelis-Menten kinetics of cellotriose hydrolysis (cellobiose release), EIW42R; details: relative to native enzyme
T3 construct: the protein was genetically truncated near the beginning of the linker peptide; made in house; host or cells: E. coli XL1-blue
T3 sequence (P54583 42-399 W83R): as the sequence (P54583 42-399 Y286G) above, with W42R, G245Y counted along it
Method: (§3) Each assay mixture was pre-incubated at 50 degrees C. for 10 min. prior to the addition of 0.00272 micromolar (0. 1092 microgram/mL) enzyme, which was also made up in 5 mM acetate buffer with 10 microgram/mL BSA. The final assay volume was 0.1 mL.
(§4) At set-time intervals, an aliquot of the reaction mixture was pulled and immediately analyzed for the release of cellobiose using a Dionex DX300 chromatography system and a Dionex PAD2 pulsed amperometric detector having a gold working electrode. The response of this detector was optimized for the detection of carbohydrates using a waveform defined by the following time and potential settings: t1=420 msec.; EI=+0.05 V; t2=180 msec.; E2=+0.75 V; t3=360 msec.; and E3=−0.15 V. Separation of the reaction products, from the substrate, was achieved on a Dionex CarboPac PA-1 analytical (4×250 mm) column equipped with CarboPac PA-1 ([…], 500 mM sodium hydroxide eluent, and a flow rate of 1.5 mL/min. The amount of cellobiose present for each time-point-sample was quantified by comparing the area of the cellobiose peak against a linear calibration curve. The kinetic constants were determined with a double-reciprocal-plot, where the reciprocal of the rate of cellobiose produced was plotted as a function of the inverse of the substrate concentration.
(§5) Michaelis-Menten kinetics of the mutant EI enzymes and the native enzyme were determined.

[4] = target: T4, Acidothermus cellulolyticus EI endoglucanase (Cel5A) catalytic domain variant Y82R, SEQ ID NO:2 (Acidothermus cellulolyticus, UniProt P54583, Y123R); test: Michaelis-Menten kinetics of cellotriose hydrolysis (cellobiose release), EIY82R; details: relative to native enzyme
T4 construct: the protein was genetically truncated near the beginning of the linker peptide; made in house; host or cells: E. coli XL1-blue
T4 sequence (P54583 42-399 Y123R): as the sequence (P54583 42-399 Y286G) above, with Y82R, G245Y counted along it
Method: as §3, §4, §5

| SMILES | Ki ([1]; Ki for inhibition by cellobiose, substrate MUC 4 and 20 μM, 30 min, cellobiose 0 to 50 mM, Dixon plots) | decrease in apparent binding energy of cellobiose versus native enzyme ([1]; from increase in Ki, Y245G relative to wild type) | Ki [2] | Vmax, % higher than that of the native enzyme [3] | Vmax, % higher than that of the native enzyme [4] |
| --- | --- | --- | --- | --- | --- |
| OC[C@H]1O[C@@H](O[C@H]2[C@H](O)[C@@H](O)C(O)O[C@@H]2CO)[C@H](O)[C@@H](O)[C@@H]1O (stereo partly drawn) [cellobiose, D-cellobiose] | 29.7 mM and 30 mM | 7.11 kJ/mol and ~6.28 kJ/mol | 1.88 mM and 2 mM |  |  |
| OC[C@H]1O[C@@H](O[C@H]2[C@H](O)[C@@H](O)[C@H](O[C@H]3[C@H](O)[C@@H](O)C(O)O[C@@H]3CO)O[C@@H]2CO)[C@H](O)[C@@H](O)[C@@H]1O (some centres unmarked) [cellotriose] |  |  |  | about 15% | ~75% |
